# pIC50: −log10 of the molar value.
# Molecular target: IGF-1R (Homo sapiens (Human), UniProt P08069)
# Test: Example B-1: IGF-1R Assay (PC3 cells, IGF1 stimulation, AlphaLISA)
# Assay type: cell-based
# Conditions: 200 ng/mL IGF1 stimulation, read-out: Biological Activity against IGF-1R IC50
# How it was run: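 Readout is AlphaLISA signal from lysed PC3 cells, expressed as % inhibition versus vehicle and EC80 controls and banded by IC50. Before lysis, the cells were starved of serum for 2 h, exposed to 3× serially diluted compound for 2 h, and stimulated for 30 min with 200 ng/mL IGF1 (final).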
# IGF-1R, sequence (P08069 31-1367): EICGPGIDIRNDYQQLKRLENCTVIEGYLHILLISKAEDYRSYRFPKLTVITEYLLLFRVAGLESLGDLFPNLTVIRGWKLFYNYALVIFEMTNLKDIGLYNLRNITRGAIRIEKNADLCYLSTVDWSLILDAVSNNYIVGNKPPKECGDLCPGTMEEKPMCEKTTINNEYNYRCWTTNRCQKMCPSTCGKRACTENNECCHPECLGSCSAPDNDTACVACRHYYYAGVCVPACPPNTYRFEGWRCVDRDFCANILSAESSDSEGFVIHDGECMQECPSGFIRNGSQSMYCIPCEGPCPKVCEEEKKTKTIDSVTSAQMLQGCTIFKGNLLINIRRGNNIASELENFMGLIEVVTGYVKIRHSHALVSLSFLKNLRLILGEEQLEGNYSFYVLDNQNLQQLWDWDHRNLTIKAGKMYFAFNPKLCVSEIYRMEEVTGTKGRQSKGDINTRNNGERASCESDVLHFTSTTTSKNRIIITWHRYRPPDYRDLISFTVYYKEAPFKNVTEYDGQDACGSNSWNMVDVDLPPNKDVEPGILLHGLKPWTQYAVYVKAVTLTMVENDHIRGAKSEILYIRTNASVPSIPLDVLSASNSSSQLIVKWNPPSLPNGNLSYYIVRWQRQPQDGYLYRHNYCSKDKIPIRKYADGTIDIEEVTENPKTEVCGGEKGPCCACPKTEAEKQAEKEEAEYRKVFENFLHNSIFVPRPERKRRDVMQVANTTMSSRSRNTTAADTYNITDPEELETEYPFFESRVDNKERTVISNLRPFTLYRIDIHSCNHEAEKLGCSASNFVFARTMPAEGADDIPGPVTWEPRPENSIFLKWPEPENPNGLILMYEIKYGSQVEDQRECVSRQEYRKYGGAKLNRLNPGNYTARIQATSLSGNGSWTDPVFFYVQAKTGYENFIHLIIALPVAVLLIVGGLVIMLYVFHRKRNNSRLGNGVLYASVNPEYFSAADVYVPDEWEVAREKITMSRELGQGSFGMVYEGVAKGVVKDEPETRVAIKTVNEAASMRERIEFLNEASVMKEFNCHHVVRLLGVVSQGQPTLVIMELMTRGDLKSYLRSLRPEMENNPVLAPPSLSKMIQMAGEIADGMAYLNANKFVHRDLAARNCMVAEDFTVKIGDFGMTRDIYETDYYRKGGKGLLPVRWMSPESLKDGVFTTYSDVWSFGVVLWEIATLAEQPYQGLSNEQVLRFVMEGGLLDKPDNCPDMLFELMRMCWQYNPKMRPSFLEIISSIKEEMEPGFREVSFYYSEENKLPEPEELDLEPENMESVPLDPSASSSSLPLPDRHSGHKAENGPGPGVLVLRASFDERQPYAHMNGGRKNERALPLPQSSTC
row,Structure (SMILES),pIC50
1,"COc1cc(Nc2nccc(Nc3cnc4ccccc4c3)n2)ccc1O[C@H]1CC[C@H](N2CCOCC2)CC1 [Compound 16, 2-{3-methoxy-4-[(1r,4r)-4-morpholinocyclohexyloxy]phenylamino}-4-(3-quinolylamino)pyrimidine]",≥ 6.30
2,"COc1cc(Nc2nccc(Nc3cnc4ccccc4c3)n2)ccc1O[C@H]1C[C@H](N(C)C)C1 [Compound 369, 2-{3-methoxy-4-[(1r,3r)-3-(dimethylamino)cyclobutoxy]phenylamino}-4-(3-quinolylamino)pyrimidine]",≥ 6.30
3,"CN1CC2(Cc3ccc(Nc4nccc(Nc5cc6cccc(F)c6[nH]c5=O)n4)cc3O2)C1 [Compound 45, 8-fluoro-3-{2-(1-methyl-3′H-spiro[azetidine-3,2′-[1]benzofuran]-6′-ylamino)-4-pyrimidinylamino}-1,2-dihydro-2-quinolinone]",≥ 6.30
4,"O=c1[nH]c2ccccc2cc1Nc1ccnc(Nc2ccc(OCCCN3CCOCC3)cc2)n1 [Compound 251, 3-{2-[p-(3-morpholinopropoxy)phenylamino]-4-pyrimidinylamino}-2(1H)-quinolinone]",≥ 6.30
5,"COc1ccc2ccc(Nc3ccnc(Nc4ccc(OCCCN5CCCCC5)c(OC)c4)n3)cc2c1 [Compound 452, 4-(7-methoxy-2-naphthylamino)-2-[3-methoxy-4-(3-piperidinopropoxy)phenylamino] pyrimidine]",≥ 6.30
6,"COc1cc(Nc2nccc(Nc3cnc4cc(O)ccc4c3)n2)ccc1O[C@H]1C[C@H](N(C)C)C1 [Compound 326, 3-(2-{3-methoxy-4-[(1r,3r)-3-(dimethylamino)cyclobutoxy]phenylamino}-4-pyrimidinylamino)-7-quinolinol]",≥ 6.30
7,"Oc1ccc2ncc(Nc3ccnc(Nc4ccc(OCCCN5CCOCC5)cc4)n3)cc2c1 [Compound 414, 3-{2-[p-(3-morpholinopropoxy)phenylamino]-4-pyrimidinylamino}-6-quinolinol]",≥ 6.30
8,"COc1cc(Nc2nccc(Nc3cnc4cc(F)c(F)cc4c3)n2)cnc1N1CCS(=N)(=O)CC1 [Compound 158, 4-(5-((4-((6,7-difluoroquinolin-3-yl)amino)pyrimidin-2-yl)amino)-3-methoxypyridin-2-yl)-1-imino-116-thiomorpholine 1-oxide]",5.70 to 6.30
9,"COc1cc(Nc2nccc(Nc3cnc4cc(Cl)cnc4c3)n2)ccc1O[C@H]1C[C@@H](N(C)C)C1 [Compound 278, 4-(7-chloro-1,5-diaza-3-naphthylamino)-2-{3-methoxy-4-[(1s,3s)-3-(dimethylamino)cyclobutoxy]phenylamino}pyrimidine]",≥ 6.30
10,"CN(C)[C@H]1CC[C@@H](Oc2ccc(Nc3nccc(Nc4cnc5ccccc5c4)n3)cc2)CC1 [Compound 40, 4-(3-quinolylamino)-2-{p-[(1s,4s)-4-(dimethylamino)cyclohexyloxy]phenylamino}pyrimidine]",≥ 6.30
11,"COc1cc(Nc2nccc(Nc3cnc4c(Cl)cccc4c3)n2)ccc1O[C@H]1C[C@H](N(C)C)C1 [Compound 358, 4-(8-chloro-3-quinolylamino)-2-{3-methoxy-4-[(1r,3r)-3-(dimethylamino)cyclobutoxy]phenylamino}pyrimidine]",≥ 6.30
12,"COc1cc(Nc2nccc(Nc3cnc4cc(F)c(F)cc4c3)n2)cnc1N1CCNC(C(F)(F)F)C1 (stereo not shown) [Compound 176, N4-(6,7-difluoroquinolin-3-yl)-N2-(5-methoxy-6-(3-(trifluoromethyl)piperazin-1-yl)pyridin-3-yl)pyrimidine-2,4-diamine]",≥ 6.30
13,"COc1cc(Nc2nccc(Nc3cnc4c(c3)C3CCC4CC3)n2)ccc1O[C@H]1C[C@H](N(C)C)C1 [Compound 75, 4-{3-azatricyclo[6.2.2.02,7]dodeca-2(7),3,5-trien-5-ylamino}-2-{3-methoxy-4-[(1r,3r)-3-(dimethylamino)cyclobutoxy]phenylamino}pyrimidine]",≥ 6.30
14,"COc1cc(Nc2nccc(Nc3ccc4c(c3)CCCC4=O)n2)ccc1OCCCN1CCCCC1 [Compound 449, 6-{2-[3-methoxy-4-(3-piperidinopropoxy)phenylamino]-4-pyrimidinylamino}-3,4-dihydro-1(2H)-naphthalenone]",≥ 6.30
15,"COc1cc(Nc2nccc(Nc3cc4cccc(F)c4[nH]c3=O)n2)cnc1N1CCN(C)C(C)(C)C1 [Compound 229, 3-{2-[6-(3,3-dimethyl-4-methyl-1-piperazinyl)-5-methoxy-3-pyridylamino]-4-pyrimidinylamino}-8-fluoro-1,2-dihydro-2-quinolinone]",≥ 6.30
16,O=S1(=O)CCN([C@H]2C[C@H](Oc3ccc(Nc4nccc(Nc5cnc6c(c5)OCCO6)n4)cc3)C2)CC1 [Compound 348],≥ 6.30
17,"COc1cc(Nc2nccc(Nc3cnc4cc(Cl)cnc4c3)n2)cnc1O[C@H]1C[C@@H](N(C)C)C1 [Compound 279, 4-(7-chloro-1,5-diaza-3-naphthylamino)-2-{5-methoxy-6-[(1s,3s)-3-(dimethylamino)cyclobutoxy]-3-pyridylamino}pyrimidine]",5.70 to 6.30

row,Structure (SMILES),pIC50
1,"COc1cc(Nc2nccc(Nc3cnc4c(c3)OC(C)CO4)n2)ccc1OCCCN1CCCCC1 (stereo not shown) [Compound 387, 2-[3-methoxy-4-(3-piperidinopropoxy)phenylamino]-4-(2-methyl-2,3-dihydro-1,4-dioxa-5-aza-7-naphthylamino)pyrimidine]",≥ 6.30
2,"COc1cc(Nc2nccc(Nc3cc4cccc(F)c4[nH]c3=O)n2)cnc1O[C@H]1C[C@@H](N(C)C)C1 [Compound 246, 8-fluoro-3-(2-{5-methoxy-6-[(1s,3s)-3-(dimethylamino)cyclobutoxy]-3-pyridylamino}-4-pyrimidinylamino)-1,2-dihydro-2-quinolinone]",≥ 6.30
3,"COC1CCc2ncc(Nc3ccnc(Nc4ccc(OCCCN5CCOCC5)cc4)n3)cc2C1 (stereo not shown) [Compound 67, 4-(6-methoxy-5,6,7,8-tetrahydro-3-quinolylamino)-2-[p-(3-morpholinopropoxy)phenylamino] pyrimidine]",5.70 to 6.30
4,"COc1cc(Nc2nccc(Nc3cnc4cc(F)cnc4c3)n2)cnc1O[C@H]1C[C@@H](N(C)C)C1 [Compound 85, 4-(7-fluoro-1,5-diaza-3-naphthylamino)-2-{5-methoxy-6-[(1s,3s)-3-(dimethylamino)cyclobutoxy]-3-pyridylamino}pyrimidine]",5.70 to 6.30
5,COc1cc(Nc2nccc(Nc3cnc4ccccc4c3)n2)ccc1O[C@H]1CC[C@@H](N(C)C)CC1 [Compound 331],≥ 6.30
6,"COc1cc(Nc2nccc(Nc3cc4ccccc4[nH]c3=O)n2)ccc1OCCCN1CCCCC1 [Compound 250, 3-{2-[3-methoxy-4-(3-piperidinopropoxy)phenylamino]-4-pyrimidinylamino}-2(1H)-quinolinone]",≥ 6.30
7,"COc1cc(Nc2nccc(Nc3cnc4ccc(Cl)cc4c3)n2)ccc1O[C@H]1C[C@@H](N(C)C)C1 [Compound 343, 4-(6-chloro-3-quinolylamino)-2-{3-methoxy-4-[(1s,3s)-3-(dimethylamino)cyclobutoxy]phenylamino}pyrimidine]",≥ 6.30
8,"COc1cc(Nc2nccc(Nc3cnc4cc(F)c(F)cc4c3)n2)cnc1N1CCN(C)CC1 [Compound 468, 4-(6,7-difluoro-3-quinolylamino)-2-[5-methoxy-6-(4-methyl-1-piperazinyl)-3-pyridylamino]pyrimidine]",≥ 6.30
9,"COc1cc(Nc2nccc(Nc3cnc4c(c3)CCCO4)n2)ccc1O[C@H]1C[C@H](N2CCOCC2)C1 [Compound 360, 4-(3,4-dihydro-2H-1-oxa-8-azanaphth-6-ylamino)-2-{3-methoxy-4-[(1r,3r)-3-morpholinocyclobutoxy]phenylamino}pyrimidine]",≥ 6.30
10,"COc1cc(Nc2nccc(Nc3cnc4ccc(Cl)cc4c3)n2)cnc1O[C@@H]1C[C@H](N(C)C)C1(C)C [Compound 258, 2-{6-[(1R,3S)-3-(dimethylamino)-2,2-dimethylcyclobutoxy]-5-methoxy-3-pyridylamino}-4-(6-chloro-3-quinolylamino)pyrimidine]",≥ 6.30
11,"c1cc(Nc2cnc3c(c2)C2CCC3C2)nc(Nc2ccc(OCCCN3CCOCC3)cc2)n1 (stereo not shown) [Compound 372, 4-(3-azatricyclo[6.2.1.0^2,7]undeca-2,4,6-trien-5-ylamino)-2-[p-(3-morpholinopropoxy)phenylamino]pyrimidine]",≥ 6.30
12,"COc1cc(Nc2nccc(Nc3cnc4cc(Cl)ccc4c3)n2)ccc1O[C@H]1C[C@H](N(C)C)C1 [Compound 324, 4-(7-chloro-3-quinolylamino)-2-{3-methoxy-4-[(1r,3r)-3-(dimethylamino)cyclobutoxy]phenylamino}pyrimidine]",≥ 6.30
13,"CN(C)[C@H]1C[C@H](Oc2ccc(Nc3nccc(Nc4cnc5ccc(Cl)cc5c4)n3)cc2)C1 [Compound 319, 4-(6-chloro-3-quinolylamino)-2-{p-[(1r,3r)-3-(dimethylamino)cyclobutoxy]phenylamino}pyrimidine]",≥ 6.30
14,"COc1cc(Nc2nccc(Nc3cnc4ccc(Cl)cc4c3)n2)cnc1N1CCN(C)CC1 [Compound 477, 4-(6-chloro-3-quinolylamino)-2-[5-methoxy-6-(4-methyl-1-piperazinyl)-3-pyridylamino]pyrimidine]",≥ 6.30
15,"COc1cc(N2CCC(C)(O)CC2)ncc1Nc1nccc(Nc2cnc3cc(F)c(F)cc3c2)n1 [Compound 488, 1-{5-[4-(6,7-difluoro-3-quinolylamino)-2-pyrimidinylamino]-4-methoxy-2-pyridyl}-4-methyl-4-piperidinol]",≥ 6.30
16,"COc1cc(Nc2nccc(Nc3cnc4c(c3)OCC(C)(C)O4)n2)ccc1O[C@H]1C[C@@H](N(C)C)C1 [Compound 268, 4-(3,3-dimethyl-2,3-dihydro-1,4-dioxa-5-aza-7-naphthylamino)-2-{3-methoxy-4-[(1s,3s)-3-(dimethylamino)cyclobutoxy]phenylamino}pyrimidine]",≥ 6.30
17,"COc1cc(Nc2nccc(Nc3cnc4cc(F)c(F)cc4c3)n2)cnc1N1CCS(=O)(=O)CC1 [Compound 161, 4-(5-((4-((6,7-difluoroquinolin-3-yl)amino)pyrimidin-2-yl)amino)-3-methoxypyridin-2-yl)thiomorpholine 1,1-dioxide]",5.70 to 6.30
